Measured values: ChEMBL document CHEMBL1201862, “PubChem BioAssay data set” (2004)
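All cell lines were grown in 96-well plates and treated with compound for 48 hours. GI50 = concentration required for 50% inhibition of growth.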 The source made the active and inactive calls. Rule as the data show it: active = GI50 up to about 1.1 µM and inactive = higher.

Experiments:
Assay in all cases: NCI anticancer screen, dose series, 48 h
[1] = test system: HCT-116
[2] = test system: ACHN
[3] = test system: RPMI-8226
[4] = test system: SNB-19
[5] = test system: MDA-MB-435
[6] = test system: HOP-62
[7] = test system: SN12C
[8] = test system: NCI-H460
[9] = test system: HT-29
[10] = test system: SNB-75
[11] = test system: OVCAR-3
[12] = test system: HCT-15
[13] = test system: M14
[14] = test system: MCF7
[15] = test system: HCC 2998
[16] = test system: NCI-H23
[17] = test system: SF-268
[18] = test system: A498
[19] = test system: UACC-62
[20] = test system: Malme-3M
[21] = test system: NCI-H226
[22] = test system: HOP-92
[23] = test system: NCI/ADR-RES
[24] = test system: CCRF-CEM
[25] = test system: SK-MEL-2
[26] = test system: UACC-257
[27] = test system: OVCAR-5
[28] = test system: MDA-MB-231
[29] = test system: UO-31
[30] = test system: TK-10
[31] = test system: CAKI-1
[32] = test system: PC-3
[33] = test system: EKVX
[34] = test system: IGROV-1
[35] = test system: HL-60
[36] = test system: Hs-578T
[37] = test system: SK-MEL-5
[38] = test system: SF-539
[39] = test system: BT-549
[40] = test system: 786-0
[41] = test system: K562
[42] = test system: MOLT-4
[43] = test system: RXF 393
[44] = test system: OVCAR-8
[45] = test system: KM12
[46] = test system: U-251
[47] = test system: OVCAR-4
[48] = test system: DU-145
[49] = test system: SW-620
[50] = test system: COLO 205
[51] = test system: A549
[52] = test system: LOX IMVI
[53] = test system: SF-295
[54] = test system: MDA-N
[55] = test system: NCI-H522
[56] = test system: SK-OV-3
[57] = test system: T47D
[58] = test system: SK-MEL-28
[59] = test system: SR

In the case of c1ccc2c(Cc3[nH]c4ccccc4c3Cc3c[nH]c4ccccc34)c[nH]c2c1, the GI50 [1] is reported as 1690 nM (inactive), the GI50 [2] is reported as 14500 nM (inactive) and the GI50 [3] is reported as 2740 nM (inactive). For the same compound, the GI50 [4] was 4930 nM (inactive), the GI50 [5] was 2080 nM (inactive) and the GI50 [6] was 3380 nM (inactive). The GI50 [7] was 1770 nM (inactive), the GI50 [8] was 1910 nM (inactive) and the GI50 [9] was 2520 nM (inactive). For the same compound, the GI50 [10] was 2480 nM (inactive), the GI50 [11] was 3160 nM (inactive) and the GI50 [12] was 2760 nM. The GI50 [13] was 2360 nM (inactive), the GI50 [14] was 11200 nM (inactive) and the GI50 [15] was 1640 nM (inactive). The GI50 [16] was 2100 nM (inactive), the GI50 [17] was 1230 nM (inactive) and the GI50 [18] was 2390 nM (inactive). The GI50 [19] was 11000 nM (inactive), the GI50 [20] was 2050 nM (inactive) and the GI50 [21] was 6080 nM (inactive). The GI50 [22] was 3900 nM (inactive), the GI50 [23] was 2550 nM (inactive) and the GI50 [24] was 2160 nM (inactive). The GI50 [25] was 2360 nM (inactive), the GI50 [26] was 2710 nM (inactive) and the GI50 [27] was 2850 nM (inactive). For the same compound, the GI50 [28] was 2120 nM (inactive), the GI50 [29] was 3350 nM (inactive) and the GI50 [30] was 2850 nM (inactive). The GI50 [31] was 2740 nM (inactive), the GI50 [32] was 2380 nM (inactive) and the GI50 [33] was 2610 nM (inactive). The GI50 [34] was 1670 nM (inactive), the GI50 [35] was 1860 nM (inactive) and the GI50 [36] was 1470 nM (inactive). The GI50 [37] was 2170 nM (inactive), the GI50 [38] was 2560 nM (inactive) and the GI50 [39] was 5570 nM (inactive). For the same compound, the GI50 [40] was 1730 nM (inactive), the GI50 [41] was 2330 nM (inactive) and the GI50 [42] was 1660 nM (inactive). For the same compound, the GI50 [43] was 1940 nM (inactive), the GI50 [44] was 4090 nM (inactive) and the GI50 [45] was 2090 nM (inactive). For the same compound, the GI50 [46] was 2880 nM (inactive), the GI50 [47] was 3060 nM (inactive) and the GI50 [48] was 1800 nM (inactive). The GI50 [49] was 1740 nM (inactive), the GI50 [50] was 2070 nM (inactive) and the GI50 [51] was 3100 nM (inactive). For the same compound, the GI50 [52] was 2190 nM (inactive), the GI50 [53] was 4300 nM (inactive) and the GI50 [54] was 2160 nM (inactive). For the same compound, the GI50 [55] was 1800 nM (inactive), the GI50 [56] was 3560 nM (inactive) and the GI50 [57] was 2930 nM (inactive). The GI50 [58] was 6210 nM (inactive) and the GI50 [59] was 2870 nM (inactive).
In the case of CCCC(=O)Nc1cc(/C=C/C(=O)N2C[C@@H]3C[C@]34C2=CC(=O)c2[nH]cc(C)c24)n(C)c1, the GI50 [1] is reported as 84.1 nM (active), the GI50 [2] is reported as 68.9 nM (active) and the GI50 [3] is reported as 675 nM (active). For the same compound, the GI50 [4] was 745 nM (active), the GI50 [5] was 285 nM (active) and the GI50 [6] was 769 nM (active). For the same compound, the GI50 [7] was 470 nM (active), the GI50 [8] was 221 nM (active) and the GI50 [9] was 208 nM (active). The GI50 [10] was 345 nM (active), the GI50 [11] was 429 nM (active) and the GI50 [12] was 723 nM. For the same compound, the GI50 [13] was 297 nM (active), the GI50 [14] was 59.6 nM (active) and the GI50 [15] was 93.1 nM (active). For the same compound, the GI50 [16] was 92.7 nM (active), the GI50 [17] was 83 nM (active) and the GI50 [18] was 236 nM (active). The GI50 [19] was 68.2 nM (active), the GI50 [20] was 74.6 nM (active) and the GI50 [21] was 313 nM (active). For the same compound, the GI50 [22] was 372 nM (active), the GI50 [23] was 778 nM (active) and the GI50 [24] was 32.1 nM (active). For the same compound, the GI50 [25] was 261 nM (active), the GI50 [26] was 98 nM (active) and the GI50 [27] was 1050 nM (active). The GI50 [28] was 380 nM (active), the GI50 [29] was 473 nM (active) and the GI50 [30] was 495 nM (active). For the same compound, the GI50 [31] was 100 nM (active), the GI50 [32] was 259 nM (active) and the GI50 [33] was 644 nM (active). The GI50 [34] was 329 nM (active), the GI50 [35] was 47.1 nM (active) and the GI50 [36] was 668 nM (active). For the same compound, the GI50 [37] was 74.8 nM (active), the GI50 [38] was 166 nM (active) and the GI50 [39] was 290 nM (active). For the same compound, the GI50 [40] was 75.7 nM (active), the GI50 [41] was 66.1 nM (active) and the GI50 [42] was 25.7 nM (active). For the same compound, the GI50 [43] was 71.1 nM (active), the GI50 [44] was 53.3 nM (active) and the GI50 [45] was 653 nM (active). The GI50 [46] was 70.2 nM (active), the GI50 [47] was 256 nM (active) and the GI50 [48] was 67.3 nM (active). For the same compound, the GI50 [49] was 70.6 nM (active), the GI50 [50] was 293 nM (active) and the GI50 [51] was 318 nM (active). For the same compound, the GI50 [52] was 73.3 nM (active), the GI50 [53] was 453 nM (active) and the GI50 [54] was 361 nM (active). The GI50 [55] was 43.2 nM (active), the GI50 [56] was 975 nM (active) and the GI50 [57] was 86.7 nM (active). The GI50 [58] was 408 nM (active) and the GI50 [59] was 14.9 nM (active).
